Read-outs that look alike come from different tables or passages of the source.
How the values were obtained:
VEGFR-2 = biological target: T1, VEGFR-2 (Homo sapiens, UniProt P35968); assay type: cell-based; conditions: western blot, MCF7, compound at its MTT IC50; for VEGFR-2 RQ (relative quantification): control RQ 3.2634
T1 construct: Western blot technique was considered for EGFR and VEGFR-2 properties determination; endogenous in cells; host or cells: MCF7 (breast cancer cell line)
Description: (§1) The western blot technique was applied utilizing the IC50 observed for each respective agent synthesized during MTT assay[85],[86]. Consideration of multi-targeted inhibitory properties investigation is based in the fact that cancer initiation and proliferation sometimes utilizes many receptors or signaling pathways.
(§2) Western blot technique was considered for EGFR and VEGFR-2 properties determination utilizing the IC50 observed of each respective agent synthesized during MTT assay against MCF7 (breast) cancer cell line. All the studies were conducted according to the manufacturer’s instruction.^10,^11

EGFR = biological target: T2, EGFR (Homo sapiens, UniProt P00533); assay type: cell-based; conditions: western blot, MCF7, compound at its MTT IC50; for EGFR RQ (relative quantification): control RQ 3.4461
T2 construct: Western blot technique was considered for EGFR and VEGFR-2 properties determination; endogenous in cells; host or cells: MCF7 (breast cancer cell line)
T2 sequence (P00533 25-1210): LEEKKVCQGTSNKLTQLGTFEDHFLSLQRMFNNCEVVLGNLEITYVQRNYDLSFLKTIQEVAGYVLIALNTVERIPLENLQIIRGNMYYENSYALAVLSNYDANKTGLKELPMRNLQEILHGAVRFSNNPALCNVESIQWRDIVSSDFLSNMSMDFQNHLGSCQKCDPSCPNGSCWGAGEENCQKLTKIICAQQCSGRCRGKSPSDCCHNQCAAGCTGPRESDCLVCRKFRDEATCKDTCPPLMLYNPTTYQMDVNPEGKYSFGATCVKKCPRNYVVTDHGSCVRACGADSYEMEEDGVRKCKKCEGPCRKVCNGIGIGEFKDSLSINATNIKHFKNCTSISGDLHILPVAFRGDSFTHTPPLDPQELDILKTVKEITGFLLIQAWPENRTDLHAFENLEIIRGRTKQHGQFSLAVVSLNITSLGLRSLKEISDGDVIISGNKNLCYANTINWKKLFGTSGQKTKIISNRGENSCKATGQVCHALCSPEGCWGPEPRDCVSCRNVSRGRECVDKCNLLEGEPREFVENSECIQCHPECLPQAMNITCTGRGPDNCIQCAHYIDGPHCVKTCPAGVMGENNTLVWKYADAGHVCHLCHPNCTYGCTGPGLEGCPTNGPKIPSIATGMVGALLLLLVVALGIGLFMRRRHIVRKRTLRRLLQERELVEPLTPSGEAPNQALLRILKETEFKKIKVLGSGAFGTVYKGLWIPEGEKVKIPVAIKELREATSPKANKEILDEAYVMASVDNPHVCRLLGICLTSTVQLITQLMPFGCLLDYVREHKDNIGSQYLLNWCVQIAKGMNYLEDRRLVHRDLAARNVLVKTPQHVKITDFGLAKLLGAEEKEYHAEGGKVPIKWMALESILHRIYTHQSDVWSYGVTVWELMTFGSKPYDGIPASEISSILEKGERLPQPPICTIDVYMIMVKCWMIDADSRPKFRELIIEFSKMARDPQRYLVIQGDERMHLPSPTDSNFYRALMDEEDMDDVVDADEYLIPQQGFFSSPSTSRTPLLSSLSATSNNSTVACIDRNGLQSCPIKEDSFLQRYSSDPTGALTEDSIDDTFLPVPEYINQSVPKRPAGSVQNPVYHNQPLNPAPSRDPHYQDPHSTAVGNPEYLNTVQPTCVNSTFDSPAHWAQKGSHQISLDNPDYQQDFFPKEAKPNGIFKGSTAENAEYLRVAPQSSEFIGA
Description: as §1, §2

[1] = test system: HCT116 (colon) cancer cell line; test: MTT antiproliferation, HCT116; assay type: cell-based, human; conditions: for IC50: Homo sapiens, HCT-116, 72 h, read-out: IC50 (µM) ± SEM HCT116; for SI (selectivity index) HCT116: IC50 of RPE1/IC50 of cancer cell line
Procedure: (§3) Antiproliferation properties of the targeted agents were investigated by the standard MTT technique against diverse human cancer cell lines [MCF7 (breast), HCT116 (colon), A431 (skin squamous) and PaCa2 (pancreatic)][67] (Table 1, Supplementary Figs. S48‒S51).
(§4) Cells were seeded at concentration of 30000 cells per well in fresh complete growth medium in 96-well tissue culture microtiter plates for 24 h. […] 0.5% DMSO was used as negative control. Triplicate wells were prepared for each individual dose. After 72 h of incubation, medium was aspirated, 40 μl MTT salt (2.5 mg ml^-1) was added to each well and incubated for further 4 h at 37 °C. To stop the reaction and dissolve the formed crystals, 150 μl of 10% sodium dodecyl sulfate (SDS) in deionized water was added to each well and incubated overnight at 37 °C.
(§5) Data were collected as mean values for experiments performed in triplicates for each individual dose which had been measured by MTT assay. […] The cell surviving fraction was calculated according to the following equation.
(§6) Surviving fraction = OpticaldensityO.D.oftreatedcellsO.D.ofcontrolcells
(§7) Statistical calculations for determination of the mean and standard error mean values were determined by SPSS 16 software.

[2] = test system: SARS-CoV-2 (hCoV-19/Egypt/NRC-03/2020); test: Vero-E6 cell viral infection model, anti-SARS-CoV-2 IC50 (CPE, crystal violet); assay type: cell-based; conditions: for IC50: Severe acute respiratory syndrome coronavirus 2, Vero C1008; for SI = CC50/IC50: Vero-E6, SARS-CoV-2
AChE = AChE (Homo sapiens, UniProt P22303); test: AChE inhibition (DTNB, acetylthiocholine); assay type: biochemical; conditions: for IC50: read-out: AChE (IC50, μM) ± SD
AChE, sequence (P22303 32-614): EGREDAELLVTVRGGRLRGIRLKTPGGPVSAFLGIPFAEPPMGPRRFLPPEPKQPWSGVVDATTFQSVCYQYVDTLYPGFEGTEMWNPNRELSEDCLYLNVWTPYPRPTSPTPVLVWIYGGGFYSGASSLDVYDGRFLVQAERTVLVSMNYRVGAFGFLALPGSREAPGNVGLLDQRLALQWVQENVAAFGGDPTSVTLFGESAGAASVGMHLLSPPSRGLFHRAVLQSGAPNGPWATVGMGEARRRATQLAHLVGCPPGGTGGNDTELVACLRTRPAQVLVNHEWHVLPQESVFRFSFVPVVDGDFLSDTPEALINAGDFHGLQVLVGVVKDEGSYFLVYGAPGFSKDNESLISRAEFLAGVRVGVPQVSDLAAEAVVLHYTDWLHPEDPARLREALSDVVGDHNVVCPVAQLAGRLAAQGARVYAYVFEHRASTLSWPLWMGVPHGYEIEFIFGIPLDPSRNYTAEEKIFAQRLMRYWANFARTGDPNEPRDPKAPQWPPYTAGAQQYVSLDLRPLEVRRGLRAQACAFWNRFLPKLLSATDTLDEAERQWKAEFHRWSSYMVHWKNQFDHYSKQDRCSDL
Procedure: All compounds were dissolved in MeOH.

[3] = test system: RPE1 (normal human immortalized retinal pigment epithelial cell line); test: MTT toxicity towards normal cells, RPE1; assay type: cell-based; conditions: RPE-1, read-out: IC50 (µM) ± SEM RPE1
Procedure: The safety of the synthesized agents against non-cancer/normal RPE1 (retinal pigment epithelium) cell line was assessed (Table 1, Supplementary Fig. S52). The SI (selectivity index) for the tested compounds against RPE1 cell line confirms the safety towards non-cancer cells. […] Compound 6d and 6h which are also of high anti-PaCa2 show remarkable SI values (SI = > 3.8, > 3.6, respectively).
The agents synthesized were also tested against RPE1 (normal human immortalized retinal pigment epithelial cell line) cell (in DMEM-F12 medium) to determine the toxicity/selectivity towards normal cells relative to the cancer cell lines utilized.
(§8) Statistical calculations for determination of the mean and standard error mean values were determined by SPSS 16 software. The observed anti-proliferative properties are presented in Table 1 (Supplementary Figs. S48‒S52).

[4] = test system: MCF7 (breast) cancer cell line; test: MTT antiproliferation, MCF7; assay type: cell-based, human; conditions: for IC50: Homo sapiens, MCF7, 72 h, read-out: IC50 (µM) ± SEM MCF7; for SI (selectivity index) MCF7: IC50 of RPE1/IC50 of cancer cell line
Procedure: as §3, §4, §5, §6, §7

[5] = test system: PaCa2 (pancreatic) cancer cell line; test: MTT antiproliferation, PaCa-2; assay type: cell-based, human; conditions: for IC50: Homo sapiens, read-out: IC50 (µM) ± SEM PaCa-2; for SI (selectivity index) PaCa-2: IC50 of RPE1/IC50 of cancer cell line
Procedure: as §3
Cells were suspended in DMEM medium for MCF7, A431, PaCa-2 and McCoy’s 5A for HCT116 in addition to 1% antibiotic–antimycotic mixture (10000 μg ml^-1 potassium penicillin, 10000 μg ml^-1 streptomycin sulfate and 25 μg ml^-1 amphotericin B), 10% fetal bovine serum and 1% L-glutamine at 37 °C, under 5% CO2 and 95% humidity. Cells were seeded at concentration of 30000 cells per well in fresh complete growth medium in 96-well tissue culture microtiter plates for 24 h. Media was aspirated, fresh complete medium was added and cells were incubated with different concentrations of the tested compound to give a final concentration of [50, 25, 12.5 and 6.25 μM “in addition to 3.125, 1.56 and 0.78 μM in case of high potent analogues”). 0.5% DMSO was used as negative control. Triplicate wells were prepared for each individual dose. After 72 h of incubation, medium was aspirated, 40 μl MTT salt (2.5 mg ml^-1) was added to each well and incubated for further 4 h at 37 °C. To stop the reaction and dissolve the formed crystals, 150 μl of 10% sodium dodecyl sulfate (SDS) in deionized water was added to each well and incubated overnight at 37 °C. The absorbance was then measured at 570 nm and a reference wavelength of 595 nm.
as §5, §6, §8

[6] = MTT cytotoxicity assay (CC50); assay type: cell-based; conditions: African green monkey, VERO-E6 cells
Procedure: The cytotoxic activity of the compounds was tested in VERO-E6 cells by using the 3-(4,5-dimethylthiazol-2-yl)-2,5-diphenyltetrazolium bromide (MTT) method with minor modifications. Briefly, the cells were seeded in 96 well-plates […] at a density of 3 x 10^5 cell/ml and incubated for 24 h at 37 °C in 5% CO2. After 24 h, cells were treated with various concentrated of the tested compounds in triplicates. 24 h later, the supernatant was discarded and cell monolayers were washed with sterile 1x phosphate buffer saline (PBS) 3 times and MTT solution (20 µl of 5 mg/ml) was added to each well and incubated at 37 °C for 4 h followed by medium aspiration. In each well, the formed formazan crystals were dissolved with 200 µl of acidified isopropanol (0.04 M HCl in absolute isopropanol = 0.073 ml HCl in 50 ml isopropanol). Eventually, the absorbance was measured at λmax 570 nm using the Anthos Zenyth 200rt plate reader (Anthos Labtec Instruments, Heerhugowaard, Netherlands). The cytotoxicity of various concentrations compared to the untreated cells was determined using nonlinear regression analysis by plotting log inhibitor versus normalized response.^12^-14

[7] = test system: A431 (skin squamous) cancer cell line; test: MTT antiproliferation, A431; assay type: cell-based, human; conditions: for IC50: Homo sapiens; for SI (selectivity index) A431: IC50 of RPE1/IC50 of cancer cell line
Procedure: as §3, §4, §5, §6, §7

BChE = BChE (Homo sapiens, UniProt P06276); test: BChE inhibition (DTNB, butyrylthiocholine iodide)
BChE, sequence (P06276 29-602, species assumed): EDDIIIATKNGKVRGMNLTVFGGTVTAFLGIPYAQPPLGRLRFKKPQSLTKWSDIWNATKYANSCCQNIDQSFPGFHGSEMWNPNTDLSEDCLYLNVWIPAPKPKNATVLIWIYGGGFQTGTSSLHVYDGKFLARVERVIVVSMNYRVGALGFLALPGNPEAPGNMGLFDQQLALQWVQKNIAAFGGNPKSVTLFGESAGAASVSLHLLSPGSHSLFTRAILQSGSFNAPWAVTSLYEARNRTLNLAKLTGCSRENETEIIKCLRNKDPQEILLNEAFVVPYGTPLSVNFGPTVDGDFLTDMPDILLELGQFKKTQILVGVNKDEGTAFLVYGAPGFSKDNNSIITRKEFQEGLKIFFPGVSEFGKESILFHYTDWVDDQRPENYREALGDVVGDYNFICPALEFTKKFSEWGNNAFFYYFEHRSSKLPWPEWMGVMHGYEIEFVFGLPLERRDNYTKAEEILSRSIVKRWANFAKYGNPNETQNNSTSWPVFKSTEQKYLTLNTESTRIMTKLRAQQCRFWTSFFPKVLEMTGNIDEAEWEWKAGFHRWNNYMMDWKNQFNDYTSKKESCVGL

[8] = Vero-E6, 72 h, reduction of virus-induced CPE, read-out: IC50 (µM) SARS-CoV-2
[9] = log of observed IC50 in μM, read-out: Observed log(IC50, μM) (SARS-CoV-2) (converted)
[10] = A-431, 72 h, read-out: IC50 (µM) ± SEM A431
[11] = A-431, read-out: Observed log(IC50, μM) (A431) (converted)

T1 sequence (P35968 20-1356): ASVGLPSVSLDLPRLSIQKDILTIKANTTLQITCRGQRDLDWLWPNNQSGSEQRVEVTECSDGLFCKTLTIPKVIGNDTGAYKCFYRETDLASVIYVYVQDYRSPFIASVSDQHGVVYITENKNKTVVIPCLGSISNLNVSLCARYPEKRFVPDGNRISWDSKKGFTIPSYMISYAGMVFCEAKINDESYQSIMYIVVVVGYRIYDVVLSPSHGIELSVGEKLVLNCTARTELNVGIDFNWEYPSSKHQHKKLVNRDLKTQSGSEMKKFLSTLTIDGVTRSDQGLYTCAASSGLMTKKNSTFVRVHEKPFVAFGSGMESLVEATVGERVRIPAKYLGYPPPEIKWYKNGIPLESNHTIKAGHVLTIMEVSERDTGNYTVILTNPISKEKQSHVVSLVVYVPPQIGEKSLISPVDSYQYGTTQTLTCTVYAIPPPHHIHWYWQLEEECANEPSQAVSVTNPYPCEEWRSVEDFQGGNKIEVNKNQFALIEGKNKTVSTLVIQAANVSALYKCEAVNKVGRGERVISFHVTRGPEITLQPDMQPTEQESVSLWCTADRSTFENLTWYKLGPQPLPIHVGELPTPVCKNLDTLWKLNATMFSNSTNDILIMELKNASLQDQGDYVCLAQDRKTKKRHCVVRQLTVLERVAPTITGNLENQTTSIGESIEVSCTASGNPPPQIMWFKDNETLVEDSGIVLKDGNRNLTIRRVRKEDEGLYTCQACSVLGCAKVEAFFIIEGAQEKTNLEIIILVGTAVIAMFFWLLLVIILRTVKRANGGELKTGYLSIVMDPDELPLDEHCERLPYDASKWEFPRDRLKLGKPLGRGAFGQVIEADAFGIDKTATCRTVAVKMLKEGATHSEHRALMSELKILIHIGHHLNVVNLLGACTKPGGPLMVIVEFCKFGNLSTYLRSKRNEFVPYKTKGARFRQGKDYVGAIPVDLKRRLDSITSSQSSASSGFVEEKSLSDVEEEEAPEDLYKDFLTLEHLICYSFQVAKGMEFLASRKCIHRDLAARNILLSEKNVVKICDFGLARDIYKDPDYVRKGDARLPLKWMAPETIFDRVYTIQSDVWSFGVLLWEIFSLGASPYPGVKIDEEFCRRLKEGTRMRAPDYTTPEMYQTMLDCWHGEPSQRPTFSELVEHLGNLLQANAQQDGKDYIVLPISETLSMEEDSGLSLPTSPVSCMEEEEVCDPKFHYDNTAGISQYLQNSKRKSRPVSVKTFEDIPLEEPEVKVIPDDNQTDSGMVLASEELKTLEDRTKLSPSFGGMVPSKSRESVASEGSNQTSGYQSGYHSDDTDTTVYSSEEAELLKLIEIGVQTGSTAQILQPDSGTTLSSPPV

Row | Structure (SMILES) | VEGFR-2 % Inhibition (VEGFR-2) | VEGFR-2 RQ (relative quantification) (VEGFR-2) | EGFR % Inhibition (EGFR) | EGFR RQ (relative quantification) (EGFR) | IC50 [1] | SI (selectivity index) HCT116 [1] | IC50 [2, 8] | IC50 [2, 9] | SI = CC50/IC50 [2] | SI = IC50 (AChE)/IC50 (BChE) (AChE) | IC50 (AChE) | IC50 [3] | IC50 [4] | SI (selectivity index) MCF7 [4] | IC50 ([5]; PaCa-2, 72 h) | CC50 at 24 h [6] | IC50 [7, 10] | IC50 [7, 11] | SI (selectivity index) A431 [7] | IC50 (BChE) | further results
1 | CCS(=O)(=O)N1C/C(=C\c2ccc(F)cc2)C(=O)C2(C1)C(c1ccc(F)cc1)CN(C)C21C(=O)Nc2ccc(Cl)cc21 (centres unmarked) [Compound 6h, (E)-5-Chloro-1″-(ethylsulfonyl)-5″-(4-fluorobenzylidene)-4′-(4-fluorophenyl)-1′-methyldispiro[indoline-3,2′-pyrrolidine-3′,3″-piperidine]-2,4″-dione] | 66.2% | 1.104 | 67.2% | 1.13 | 4.6 ± 0.18 µM | > 10.9 | 7.69 µM | 7.69 µM | 34.1 | 0.8 | 6.3 ± 0.97 µM | > 50 µM | 4.69 ± 0.44 µM | > 10.7 | 14 ± 0.73 µM | 262 µM | 6.04 ± 0.26 µM | 6.04 µM | > 8.3 | 8.07 ± 1.47 µM | SI (selectivity index) PaCa-2 [5]: > 3.6
2 | CN1CC(c2ccccc2)C2(CN(S(C)(=O)=O)C/C(=C\c3ccccc3)C2=O)C12C(=O)Nc1ccccc12 (centres unmarked) [Compound 6a, (E)-5″-Benzylidene-1′-methyl-1″-(methylsulfonyl)-4′-phenyldispiro[indoline-3,2′-pyrrolidine-3′,3″-piperidine]-2,4″-dione] | 60.9% | 1.2773 | 66.4% | 1.1593 | 16 ± 1.1 µM | > 3.1 | 34.3 µM | 34.3 µM | 158.6 | 1.1 | 22.2 ± 3.35 µM | > 50 µM | 19.8 ± 0.99 µM | > 2.5 | 48.4 ± 2.23 µM | 5430 µM | 32.3 ± 1.14 µM | 32.3 µM | > 1.5 | 19.8 ± 2.18 µM | SI (selectivity index) PaCa-2 [5]: > 1.0
3 | COc1ccc(/C=C2\CN(S(C)(=O)=O)CC3(C2=O)C(c2ccc(OC)c(OC)c2)CN(C)C32C(=O)Nc3ccccc32)cc1OC (centres unmarked) [Compound 6n, (E)-5″-(3,4-Dimethoxybenzylidene)-4′-(3,4-dimethoxyphenyl)-1′-methyl-1″-(methylsulfonyl)dispiro[indoline-3,2′-pyrrolidine-3′,3″-piperidine]-2,4″-dione] | 64.2% | 1.167 | 69.6% | 1.047 | 15.4 ± 0.52 µM | > 3.2 | 35.9 µM | 35.9 µM | 17.3 | 0.9 | 5.4 ± 0.94 µM | > 50 µM | 40.2 ± 1.1 µM | > 1.2 | 32.8 ± 1.21 µM | 621 µM | 34.9 ± 1.36 µM | 34.9 µM | > 1.4 | 6.33 ± 0.85 µM | SI (selectivity index) PaCa-2 [5]: > 1.5
4 | CCS(=O)(=O)N1C/C(=C\c2ccc(F)cc2)C(=O)C2(C1)C(c1ccc(F)cc1)CN(C)C21C(=O)Nc2ccccc21 (centres unmarked) [Compound 6g, (E)-1″-(Ethylsulfonyl)-5″-(4-fluorobenzylidene)-4′-(4-fluorophenyl)-1′-methyldispiro[indoline-3,2′-pyrrolidine-3′,3″-piperidine]-2,4″-dione] | 63.7% | 1.186 | 62.8% | 1.28 | 4.94 ± 0.25 µM | 6.8 | 16.9 µM | 16.9 µM | 4.7 | 0.8 | 2.46 ± 0.99 µM | 33.4 ± 1.22 µM | 10.3 ± 0.86 µM | 3.2 | 28.4 ± 0.85 µM | 79.2 µM | 6.17 ± 0.44 µM | 6.17 µM | 5.4 | 3.22 ± 0.92 µM | SI (selectivity index) PaCa-2 [5]: 1.2
5 | CCS(=O)(=O)N1C/C(=C\c2ccccc2)C(=O)C2(C1)C(c1ccccc1)CN(C)C21C(=O)Nc2ccccc21 (centres unmarked) [Compound 6c, (E)-5″-Benzylidene-1″-(ethylsulfonyl)-1′-methyl-4′-phenyldispiro[indoline-3,2′-pyrrolidine-3′,3″-piperidine]-2,4″-dione] | 63.8% | 1.18 | 69.6% | 1.0493 | 6.12 ± 0.44 µM | > 8.2 | 103 µM | 103 µM | 55.5 | 1.2 | 78 ± 3.26 µM | > 50 µM | > 50 µM |  | > 50 µM | 5700 µM | 33.2 ± 0.91 µM | 33.2 µM | > 1.5 | 65.4 ± 2.42 µM | 
6 | CCN(CC)CCNC(=O)c1c(C)[nH]c(/C=C2\C(=O)Nc3ccc(F)cc32)c1C [Sunitinib, reference compound] |  |  |  |  |  |  |  |  |  |  |  |  |  |  |  |  |  |  |  |  | IC50 ([5]; MTT, 72 h, PaCa-2): 16.9 ± 0.95 µM

Reference: paper PMC9380671, “Development of spiro-3-indolin-2-one containing compounds of antiproliferative and anti-SARS-CoV-2 properties” (Scientific Reports, 2022)
